Paper PMC12335474 (Communications Biology, 2025)

How the values were obtained:
[1] = molecular target: MLCK (myosin light chain kinase, smooth muscle) (Homo sapiens, UniProt Q15746); assay: SPR; format: binding
[2] = molecular target: MLCK (myosin light chain kinase, smooth muscle) (Homo sapiens, UniProt Q15746, N1725A); assay: SPR; format: binding
Sequence of MLCK (myosin light chain kinase, smooth muscle) (Homo sapiens, UniProt Q15746, N1725A) (Q15746 923-1914 N1725A): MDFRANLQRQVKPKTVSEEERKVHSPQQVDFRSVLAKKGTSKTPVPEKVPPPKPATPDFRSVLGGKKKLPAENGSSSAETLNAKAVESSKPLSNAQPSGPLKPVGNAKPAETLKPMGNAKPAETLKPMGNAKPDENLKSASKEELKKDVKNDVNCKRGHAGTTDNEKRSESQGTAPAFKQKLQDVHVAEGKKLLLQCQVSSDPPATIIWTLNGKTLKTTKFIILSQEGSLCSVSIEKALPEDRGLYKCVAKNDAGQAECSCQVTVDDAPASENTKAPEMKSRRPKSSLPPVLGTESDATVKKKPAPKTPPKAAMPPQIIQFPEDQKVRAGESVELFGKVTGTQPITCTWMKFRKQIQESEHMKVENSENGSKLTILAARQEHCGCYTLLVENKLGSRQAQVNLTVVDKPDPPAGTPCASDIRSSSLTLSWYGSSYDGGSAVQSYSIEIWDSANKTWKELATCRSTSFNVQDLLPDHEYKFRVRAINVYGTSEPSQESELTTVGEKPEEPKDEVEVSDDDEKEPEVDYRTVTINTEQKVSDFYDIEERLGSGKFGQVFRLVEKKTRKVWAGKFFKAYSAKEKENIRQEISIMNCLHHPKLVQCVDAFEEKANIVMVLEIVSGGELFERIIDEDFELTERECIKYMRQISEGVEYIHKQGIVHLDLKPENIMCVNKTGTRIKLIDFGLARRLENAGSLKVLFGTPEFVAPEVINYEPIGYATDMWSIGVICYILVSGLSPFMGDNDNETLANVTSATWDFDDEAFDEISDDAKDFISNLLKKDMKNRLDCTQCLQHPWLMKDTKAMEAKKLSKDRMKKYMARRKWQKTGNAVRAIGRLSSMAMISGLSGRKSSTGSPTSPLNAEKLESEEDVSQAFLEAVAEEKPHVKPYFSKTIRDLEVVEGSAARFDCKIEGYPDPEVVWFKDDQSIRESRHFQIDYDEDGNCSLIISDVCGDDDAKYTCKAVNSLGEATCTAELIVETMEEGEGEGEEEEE

Sequence of MLCK (myosin light chain kinase, smooth muscle) (Homo sapiens, UniProt Q15746) (Q15746 whole entry): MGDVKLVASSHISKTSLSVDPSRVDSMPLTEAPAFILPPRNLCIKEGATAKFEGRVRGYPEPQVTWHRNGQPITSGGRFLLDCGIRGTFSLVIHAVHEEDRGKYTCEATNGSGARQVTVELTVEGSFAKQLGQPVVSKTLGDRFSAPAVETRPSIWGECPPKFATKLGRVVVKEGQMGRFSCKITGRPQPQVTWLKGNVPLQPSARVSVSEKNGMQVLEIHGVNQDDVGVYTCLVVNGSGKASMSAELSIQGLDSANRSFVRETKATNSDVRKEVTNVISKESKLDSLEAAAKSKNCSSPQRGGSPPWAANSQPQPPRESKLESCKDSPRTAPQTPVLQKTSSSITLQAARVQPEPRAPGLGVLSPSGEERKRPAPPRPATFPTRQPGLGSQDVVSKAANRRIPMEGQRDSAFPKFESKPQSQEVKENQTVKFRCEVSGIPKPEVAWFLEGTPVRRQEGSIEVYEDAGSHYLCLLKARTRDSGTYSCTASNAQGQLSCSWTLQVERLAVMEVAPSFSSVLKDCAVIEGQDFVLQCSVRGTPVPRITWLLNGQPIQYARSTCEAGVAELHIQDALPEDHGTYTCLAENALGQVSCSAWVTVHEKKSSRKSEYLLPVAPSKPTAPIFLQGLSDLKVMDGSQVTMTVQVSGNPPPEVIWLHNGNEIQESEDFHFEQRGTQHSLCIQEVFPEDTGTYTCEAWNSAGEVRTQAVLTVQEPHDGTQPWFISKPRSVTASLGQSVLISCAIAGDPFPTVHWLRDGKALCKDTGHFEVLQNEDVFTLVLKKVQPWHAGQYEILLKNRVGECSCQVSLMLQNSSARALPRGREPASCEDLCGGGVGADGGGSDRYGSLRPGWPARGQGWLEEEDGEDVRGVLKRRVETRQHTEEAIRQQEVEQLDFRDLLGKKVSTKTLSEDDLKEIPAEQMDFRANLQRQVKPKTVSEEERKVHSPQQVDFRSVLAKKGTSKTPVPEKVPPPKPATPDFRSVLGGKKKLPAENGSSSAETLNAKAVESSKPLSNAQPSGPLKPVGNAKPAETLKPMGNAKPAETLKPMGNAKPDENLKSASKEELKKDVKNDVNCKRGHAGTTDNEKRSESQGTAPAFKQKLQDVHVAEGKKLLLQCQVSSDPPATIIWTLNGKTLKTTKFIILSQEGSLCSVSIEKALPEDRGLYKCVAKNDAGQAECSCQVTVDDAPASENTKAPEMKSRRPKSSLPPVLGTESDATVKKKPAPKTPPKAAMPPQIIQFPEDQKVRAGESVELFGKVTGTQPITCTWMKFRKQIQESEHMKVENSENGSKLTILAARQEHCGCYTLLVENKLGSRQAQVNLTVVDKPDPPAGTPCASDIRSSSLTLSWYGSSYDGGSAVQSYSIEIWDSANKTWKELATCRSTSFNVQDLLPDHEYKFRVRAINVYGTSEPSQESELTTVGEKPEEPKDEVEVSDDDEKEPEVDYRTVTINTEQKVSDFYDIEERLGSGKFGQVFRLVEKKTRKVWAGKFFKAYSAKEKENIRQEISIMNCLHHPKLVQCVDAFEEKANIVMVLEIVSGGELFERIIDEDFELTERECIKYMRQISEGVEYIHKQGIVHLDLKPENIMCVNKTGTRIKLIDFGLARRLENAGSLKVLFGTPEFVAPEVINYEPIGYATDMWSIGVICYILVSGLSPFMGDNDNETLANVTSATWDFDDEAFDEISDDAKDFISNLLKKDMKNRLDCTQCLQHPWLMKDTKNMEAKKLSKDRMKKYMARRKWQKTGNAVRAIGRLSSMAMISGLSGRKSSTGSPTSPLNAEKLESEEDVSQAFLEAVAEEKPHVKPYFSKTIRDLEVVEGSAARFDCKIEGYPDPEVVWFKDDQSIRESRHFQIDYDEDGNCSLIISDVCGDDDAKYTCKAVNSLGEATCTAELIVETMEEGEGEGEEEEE

Kd [1]: 257 µM
Kd [2]: 312 µM
Compound: O=c1[nH]c(=O)c2[nH]c(=O)[nH]c2[nH]1 [UA, uric acid]
